In a compilation of properties of binary mixtures (doi:10.1051/jnwpu/20234130557):

Experiment: xn = mol fraction of the nth substance listed
Conditions: 298.15 K, 101.3 kPa

CCCC[n+]1cccc(C)c1.O=S(=O)([N-]S(=O)(=O)C(F)(F)F)C(F)(F)F + CC(C)O
Conditions | electrical conductivity [S/m]
x2 = 0.0802 | 0.334
x2 = 0.1045 | 0.41
x2 = 0.1234 | 0.462
x2 = 0.1455 | 0.511
x2 = 0.177 | 0.566
x2 = 0.2193 | 0.613
x2 = 0.2497 | 0.633
x2 = 0.4682 | 0.587
x2 = 0.6921 | 0.441
x2 = 0.9362 | 0.3

CC(C)O + CCCC[n+]1cccc(C)c1.O=S(=O)([N-]S(=O)(=O)C(F)(F)F)C(F)(F)F
Conditions | electrical conductivity [S/m]
x1 = 1 | 0.27

CCCC[n+]1cccc(C)c1.O=S(=O)([N-]S(=O)(=O)C(F)(F)F)C(F)(F)F + CO
Conditions | electrical conductivity [S/m]
x2 = 0 | 0.273
x2 = 0.2345 | 0.453
x2 = 0.5544 | 0.951
x2 = 0.7016 | 1.38
x2 = 0.8346 | 1.93
x2 = 0.882 | 2.1
x2 = 0.9199 | 2.13

CCCC[n+]1cccc(C)c1.O=S(=O)([N-]S(=O)(=O)C(F)(F)F)C(F)(F)F + CCO
Conditions | electrical conductivity [S/m]
x2 = 0.2427 | 0.445
x2 = 0.5689 | 0.809
x2 = 0.7583 | 1.04
x2 = 0.8896 | 0.992
x2 = 0.9196 | 0.883
x2 = 0.9371 | 0.783
